From US9028845B2, “Chimeric immunomodulatory compounds and methods of using the same-IV” (Dynavax Technologies Corporation, priority 2001, dated 2015)

System: human PBMCs
Experiment: Human PBMC cytokine response assay (IFN-γ and IFN-α in cell-free medium by ELISA), with or without cPLGA;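 for IFN-α (pg/ml) mean: 20 µg/mL compound for 24 hours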;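 for IFN-γ (pg/ml) mean: 20 µg/mL compound for 24 hours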
Assay type: cell-based
Conditions: for IFN-a / IFN-g / IFN-a (pg/ml) mean / IFN-g (pg/ml) mean / IFN-a (pg/ml) ×2 / IFN-g (pg/ml) ×4: Table 15; for IFN-a (pg/ml) mean / IFN-g (pg/ml) mean: mean of donors 28185-28188; for IFN-a (pg/ml) ×2: mean ×2; for IFN-g (pg/ml) ×4: mean ×4
[1] = Table 24, mean of donors 28234-28237
[2] = donor 28066, 20 ug/ml, 24 h, + PLGA = premixed with 100 μg/ml cPLGA
[3] = donor 28067, 20 ug/ml, 24 h, + PLGA = premixed with 100 μg/ml cPLGA
[4] = donor 28068, 20 ug/ml, 24 h, + PLGA = premixed with 100 μg/ml cPLGA
[5] = mean of donors 28065-28068, 20 ug/ml, 24 h, + PLGA = premixed with 100 μg/ml cPLGA

For “(5′-TCGTCGA-3′-HEG)2-glycerol-HEG-5′-AACGTTC-3′ [Compound C-96]”, the IFN-α (Table 24, donor 28234) was 16 pg/mL, the IFN-γ (Table 24, donor 28234) was 21 pg/mL and the IFN-α (Table 24, donor 28235) was 120 pg/mL. The IFN-γ (Table 24, donor 28235) was 239 pg/mL, the IFN-α (Table 24, donor 28236) was 608 pg/mL and the IFN-γ (Table 24, donor 28236) was 354 pg/mL. It also gave an IFN-α (Table 24, donor 28237) of 993 pg/mL, an IFN-γ (Table 24, donor 28237) of 1396 pg/mL and an IFN-α mean [1] of 434 pg/mL. The IFN-γ mean [1] was 503 pg/mL, the “IFN-a” value (donor 28185) was 2550 pg/mL and the “IFN-g” value (donor 28185) was 163 pg/mL. For the same substance, the “IFN-a” value (donor 28186) was 446 pg/mL, the “IFN-g” value (donor 28186) was 22 pg/mL and the “IFN-a” value (donor 28187) was 118 pg/mL. For the same substance, the “IFN-g” value (donor 28187) was 195 pg/mL, the “IFN-a” value (donor 28188) was 40 pg/mL and the “IFN-g” value (donor 28188) was 12 pg/mL. The “IFN-a (pg/ml) mean” value was 788 pg/mL, the “IFN-g (pg/ml) mean” value was 98 pg/mL and the “IFN-a (pg/ml) ×2” value was 1577 pg/mL. For the same substance, the “IFN-g (pg/ml) ×4” value was 392 pg/mL and the “IFN-α induction, in words” value (used alone) was “induced more IFN-α relative to linear CICs with HEG spacers”.
In the case of “(5′-TCGTCGA-3′)2-glycerol-5′-AACGTTC-3′ [Compound C-27]”, the “IFN-γ (pg/ml) 28065” value (donor 28065 (high background), 20 ug/ml, 24 h, + PLGA = premixed with 100 μg/ml cPLGA, 1000 = outside assay limits) is reported as 475 pg/mL, the “IFN-α (pg/ml) 28065” value (donor 28065, 20 ug/ml, 24 h, + PLGA = premixed with 100 μg/ml cPLGA) is reported as 3 pg/mL and the “IFN-α (pg/ml) 28066” value [2] is reported as 0 pg/mL. For the same substance, the “IFN-γ (pg/ml) 28066” value [2] was 3 pg/mL, the “IFN-α (pg/ml) 28067” value [3] was 24 pg/mL and the “IFN-γ (pg/ml) 28067” value [3] was 24 pg/mL. For the same substance, the “IFN-α (pg/ml) 28068” value [4] was 16 pg/mL, the “IFN-γ (pg/ml) 28068” value [4] was 226 pg/mL and the “IFN-a” value (donor 28185) was 4 pg/mL. For the same substance, the “IFN-g” value (donor 28185) was 49 pg/mL, the “IFN-a” value (donor 28186) was 4 pg/mL and the “IFN-g” value (donor 28186) was 3 pg/mL. The “IFN-a” value (donor 28187) was 39 pg/mL, the “IFN-g” value (donor 28187) was 21 pg/mL and the “IFN-a” value (donor 28188) was 4 pg/mL. The “IFN-g” value (donor 28188) was 3 pg/mL, the “IFN-α (pg/ml) mean” value [5] was 11 pg/mL and the “IFN-γ (pg/ml) mean” value [5] was 182 pg/mL. The “IFN-a (pg/ml) mean” value was 13 pg/mL, the “IFN-g (pg/ml) mean” value was 19 pg/mL and the “IFN-a (pg/ml) ×2” value was 25 pg/mL. The “IFN-g (pg/ml) ×4” value was 75 pg/mL.
In the case of “5′-AGATGAT-3′-HEG-5′-ACGTTCG-3′-HEG-5′-TCGTCGA-3′ [Compound C-60]”, the IFN-α (Table 13, donor 28156) is reported as 5 pg/mL, the IFN-γ (Table 13, donor 28156) is reported as 304 pg/mL and the IFN-α (Table 13, donor 28157) is reported as 22 pg/mL. The IFN-γ (Table 13, donor 28157) was 209 pg/mL, the IFN-α (Table 13, donor 28158) was 3 pg/mL and the IFN-γ (Table 13, donor 28158) was 26 pg/mL. For the same substance, the IFN-α (Table 13, donor 28159) was 1 pg/mL, the IFN-γ (Table 13, donor 28159) was 38 pg/mL and the IFN-α mean (Table 13, mean of donors) was 8 pg/mL. For the same substance, the IFN-γ mean (Table 13, mean of donors) was 144 pg/mL.
“HEG-5′-TCGTCG-3′-HEG-5′-ACGTTCG-3′-HEG-5′-AGATGAT-3′-TEG (phosphodiester linkages) [Compound C-31]” was tested, and the IFN-α (Table 9, donor 28089) was 158 pg/mL, the IFN-γ (Table 9, donor 28089) was 0 pg/mL and the IFN-α (Table 9, donor 28090) was 26 pg/mL. The IFN-γ (Table 9, donor 28090) was 0 pg/mL, the IFN-α (Table 9, donor 28098) was 62 pg/mL and the IFN-γ (Table 9, donor 28098) was 0 pg/mL. The IFN-α (Table 9, donor 28099) was 29 pg/mL, the IFN-γ (Table 9, donor 28099) was 2 pg/mL and the IFN-α mean (Table 9, mean of donors) was 69 pg/mL. For the same substance, the IFN-γ mean (Table 9, mean of donors) was 0 pg/mL, the “activity when formulated with cPLGA, in words” value (formulated with cPLGA) was “good activity when formulated with cPLGA” and the “immunomodulatory activity (IFN-γ / IFN-α secretion), in words” value (used alone (no cPLGA)) was “inactive as a CIC alone”.
With “(5′-TCGACGT-HEG)2-glycerol-HEG-5′-CCTACTGAACCTCTAAGT-3′ (SEQ ID NO: 158) (DNA, all phosphorothioate, methylation of C not given here; Two heptamer DNA arms joined by HEG spacers and glycerol branching to the chain) [Compound C-203]” the IFN-α (Example 59, 0.8 ug/ml, donor 48) was 102 pg/mL, the IFN-α (Example 59, 0.8 ug/ml, donor 177) was 102 pg/mL and the IFN-α (Example 59, 0.8 ug/ml, donor 272) was 102 pg/mL. The IFN-α (Example 59, 0.8 ug/ml, donor 273) was 102 pg/mL, the IFN-α mean (Example 59, 0.8 ug/ml, mean of four donors) was 102 pg/mL and the IFN-α (Example 59, 4 ug/ml, donor 48) was 691 pg/mL. The IFN-α (Example 59, 4 ug/ml, donor 177) was 487 pg/mL, the IFN-α (Example 59, 4 ug/ml, donor 272) was 102 pg/mL and the IFN-α (Example 59, 4 ug/ml, donor 273) was 102 pg/mL. It also gave an IFN-α mean (Example 59, 4 ug/ml, mean of four donors) of 346 pg/mL, an IFN-α (Example 59, 20 ug/ml, donor 48) of 735 pg/mL and an IFN-α (Example 59, 20 ug/ml, donor 177) of 681 pg/mL. For the same substance, the IFN-α (Example 59, 20 ug/ml, donor 272) was 102 pg/mL, the IFN-α (Example 59, 20 ug/ml, donor 273) was 102 pg/mL and the IFN-α mean (Example 59, 20 ug/ml, mean of four donors) was 405 pg/mL.
